The test system of data set [1] is BALB/3T3. Put plainly: Cytotoxicity against mouse BALB/3T3 cells assessed as reduction in cell viability at 10 to 50 ug/ml measured after 72 hrs. The class given is toxicity, cell-based. As to conditions: balb/3t3, 72 h, dose 10-50 µg/ml.
Data set [2] has as its system BALB/3T3. Put plainly: Cytotoxicity against mouse BALB/3T3 cells assessed as reduction in cell viability at 50 ug/ml measured after 72 hrs. The format is toxicity, cell-based. As to conditions: balb/3t3, 72 h, dose 50 µg/ml.
In data set [3] the test system is B16-F10. Nature of the data set: Antiproliferative activity against mouse B16-F10 cells assessed as reduction in cell number at 10 to 50 ug/ml measured after 72 hrs. As to conditions: dose 10-50 µg/ml. The format is functional, cell-based.
For data set [4], the system named is BALB/3T3. Put plainly: Cytotoxicity against mouse BALB/3T3 cells assessed as reduction in cell viability at 10 to 50 ug/ml measured after 72 hrs by crystal violet staining based analysis. The format is toxicity. The settings on record: balb/3t3, 72 h, dose 10-50 µg/ml.
Data set [5] has as its system BALB/3T3. Nature of the data set: Cytotoxicity against mouse BALB/3T3 cells assessed as reduction in cell viability at 10 to 50 ug/ml measured after 72 hrs by neutral red staining based analysis. The settings on record: balb/3t3, 72 h, dose 10-50 µg/ml. The class given is toxicity.
Data set [6] relates to B16-F10. Nature of the data set: Antiproliferative activity against mouse B16-F10 cells assessed as reduction in cell viability at 10 to 50 ug/ml measured after 72 hrs. As to conditions: dose 10-50 µg/ml. The class given is functional, cell-based.
Data set [7] deals with B16-F10. Nature of the data set: Antiproliferative activity against mouse B16-F10 cells assessed as reduction in cell viability at 50 ug/ml measured after 72 hrs by neutral red uptake assay. The format is functional, cell-based. The settings on record: dose 50.0 µg/ml.
The test system of data set [8] is B16-F10. Put plainly: Antiproliferative activity against mouse B16-F10 cells assessed as reduction in cell number at 50 ug/ml measured after 72 hrs. As to conditions: dose 50.0 µg/ml. The class given is functional, cell-based.

Activity calls are given as the source filed them. The rule behind the calls is not given here.

As to `O=C(O)C(O)c1ccc([Se]c2ccccc2)cc1` (centres undefined), the Activity result with BALB/3T3 [1] and in the data set on BALB/3T3 [2] was “Non-Toxic” in each case. Moreover, the outcome with B16-F10 [3] was Active.
In the case of `COC(=O)C(OC(C)=O)c1ccc([Se]c2ccccc2)cc1` (centres undefined), the Activity result with BALB/3T3 [4] and in the data set on BALB/3T3 [5] was “Toxic” throughout.
With `CCCC[Se]c1ccc(C(O)C(=O)OC)cc1` (centres undefined), the Activity result in the data set on BALB/3T3 [1] is given as “Non-Toxic”. For the same compound, the outcome in the data set on B16-F10 [6] was inactive.
Consider `OCC(O)c1ccc([Se]c2ccccc2)cc1` (centres undefined), for which the Activity entry in the data set on BALB/3T3 [4] and with BALB/3T3 [5] was “Toxic” in each case.
As to `COC(=O)C(O)c1ccc([Se]c2ccccc2)cc1` (centres undefined), the Activity entry in the data set on BALB/3T3 [4] and with BALB/3T3 [5] was “Toxic” in each case.
Consider `CCCC[Se]c1ccc(C(O)C(=O)O)cc1` (centres undefined), for which, in the data set on BALB/3T3 [1], the Activity result is recorded as “Non-Toxic”. The outcome in the data set on B16-F10 [7] and in the data set with B16-F10 [8] was Active.

(Values after ChEMBL document CHEMBL5584253, “Polyfunctionalized organoselenides: New synthetic approach from selenium-containing cyanohydrins and anti-melanoma activity” (Bioorg Med Chem Lett, 2024).)
